Values after ≈ are worked out from the molar mass of the structure shown. Read-outs that look alike come from different tables or passages of the source.
Key:
[1] = Human plasma, equilibrium dialysis
Mtb H37Rv [2] = test: Primary screen: MIC, IC50 and IC90 under aerobic conditions; format: cell-based; details: Mycobacterium tuberculosis
in vitro [3] = details: human
[4] = Caco-2 cell monolayer permeability assay; details: human
NRP Mtb H37Rv = test: microbe, parasite or virus in culture; format: cell-based; details: Mycobacterium tuberculosis
physchem = details: aqueous with cosolvent or surfactant or cyclodextrin, kinetic from dmso stock
HepG2 cytotoxicity = format: cell-based; details: human, HepG2 cells
in vitro [5] = details: human; remark: listed apart in the source
Mtb H37Rv [6] = test: Secondary assay: MIC, IC50 and IC90 repeated at lower starting concentrations; format: cell-based; details: Mycobacterium tuberculosis
Mycobacterium avium = test: MIC against nontuberculous mycobacteria, Alamar blue; format: cell-based; details: Mycobacterium avium
Mycobacterium abscessus = test: MIC, IC50, IC90 against nontuberculous mycobacteria; format: cell-based; details: Mycobacteroides abscessus

CC(=O)CC(c1ccccc1)c1c(O)c2ccccc2oc1=O (stereo not drawn) [Warfarin]
recovery [1]: 96.7

NC(=O)C[n+]1ccn(Cc2cccc(Cn3cc[n+](CC(N)=O)c3)n2)c1 [Compound 4b, 1,1′-(pyridine-2,6-diylbis(methylene))bis(3-(2-amino-2-oxoethyl)-1H-imidazol-3-ium) iodide]
IC50 (Mtb H37Rv [2]): > 200 µM
IC90 (Mtb H37Rv [2]): > 200 µM
MIC (Mtb H37Rv [2]): > 200 µM

COc1ccc(C(=O)C[n+]2cn(Cc3cccc(Cn4c[n+](CC(=O)c5ccc(OC)cc5)c5ccccc54)n3)c3ccccc32)cc1 [Compound 6g, 1,1′-(pyridine-2,6-diylbis(methylene))bis(3-(2-(4-methoxyphenyl)-2-oxoethyl)-1H-benzo[d]imidazol-3-ium) bromide]
MIC (Mtb H37Rv [2]): 58 µM

O=C(C[n+]1ccn(Cc2cccc(Cn3cc[n+](CC(=O)c4ccccc4)c3)n2)c1)c1ccccc1 [Compound 4c, 1,1′-(pyridine-2,6-diylbis(methylene))bis(3-(2-oxo-2-phenylethyl)-1H-imidazol-3-ium) bromide]
IC50 (Mtb H37Rv [2]): > 200 µM
IC90 (Mtb H37Rv [2]): > 200 µM
MIC (Mtb H37Rv [2]): > 200 µM

CC(C)NCC(O)COc1cccc2ccccc12 (stereo not drawn) [Propranolol, reference compound]
Mean plasma fraction bound [1]: 79.3%
recovery (in vitro [3]): 93%
fraction unbound (in vitro [3]; plasma): 0.207
Papp B→A ([4]; Caco-2): 250 nm/s
Papp A→B ([4]; Caco-2, Mean A→B Papp, Caco-2, apical to basal): 127 nm/s

Cc1ncc([N+](=O)[O-])n1CCO [Metronidazole, reference compound]
IC50 (NRP Mtb H37Rv; Low oxygen): 29 µM
IC90 (NRP Mtb H37Rv; Low oxygen): 110 µM
MIC (NRP Mtb H37Rv; Low oxygen): 200 µM (≈ 34.2 µg/mL)
IC50 (NRP Mtb H37Rv; Normal oxygen): > 200 µM
IC90 (NRP Mtb H37Rv; Normal oxygen): > 200 µM
MIC (NRP Mtb H37Rv; Normal oxygen): > 200 µM

c1cc(Cn2ccnc2)nc(Cn2ccnc2)c1 [Compound 2a, 2,6-bis((1H-imidazol-1-yl)methyl)pyridine]
IC50 (Mtb H37Rv [2]): > 200 µM
IC90 (Mtb H37Rv [2]): > 200 µM
MIC (Mtb H37Rv [2]): > 200 µM
solubility (physchem): > 200 µM

CN[C@@H]1C[C@H]2O[C@@](C)([C@@H]1OC)n1c3ccccc3c3c4c(c5c6ccccc6n2c5c31)C(=O)NC4 [Staurosporine, reference compound]
IC50 at 72 h (HepG2 cytotoxicity): 0.0086 µM
IC50 (in vitro [5]): 0.018 µM

CO[C@H]1/C=C/O[C@@]2(C)Oc3c(C)c(O)c4c(O)c(c(/C=N/N5CCN(C)CC5)c(O)c4c3C2=O)NC(=O)/C(C)=C\C=C\[C@H](C)[C@H](O)[C@@H](C)[C@@H](O)[C@@H](C)[C@H](OC(C)=O)[C@@H]1C [Rifampicin, reference compound]
IC50 (Mtb H37Rv [6]): 0.004 µM
IC90 (Mtb H37Rv [6]): 0.0077 µM
MIC (Mtb H37Rv [6]; read-out: MIC aerobic condition): 0.0063 µM (≈ 0.00518 µg/mL)
IC50 (NRP Mtb H37Rv; Low oxygen): 0.0041 µM
IC90 (NRP Mtb H37Rv; Low oxygen): 0.0065 µM
MIC (NRP Mtb H37Rv; Low oxygen): 0.13 µM (≈ 0.107 µg/mL)
MIC (NRP Mtb H37Rv; Normal oxygen): 0.096 µM (≈ 0.079 µg/mL)
MIC (Mycobacterium avium): > 200 µM
IC50 (Mycobacterium abscessus): 2.1 µM
IC90 (Mycobacterium abscessus): 3.1 µM
MIC (Mycobacterium abscessus): 3.3 µM (≈ 2.72 µg/mL)

COC(=O)C[n+]1ccn(Cc2cccc(Cn3cc[n+](CC(=O)OC)c3)n2)c1 [Compound 4a, 1,1′-(pyridine-2,6-diylbis(methylene))bis(3-(2-methoxy-2-oxoethyl)-1H-imidazol-3-ium) bromide]
IC50 (Mtb H37Rv [2]): > 200 µM
IC90 (Mtb H37Rv [2]): > 200 µM
MIC (Mtb H37Rv [2]): > 200 µM
